From PMC2994747, “Molecular Characterization of c-Abl/c-Src Kinase Inhibitors Targeted against Murine Tumour Progenitor Cells that Express Stem Cell Markers” (PLoS ONE, 2010)
Read-outs that look alike come from different tables or passages of the source.

Experiments:
GammaD12 [1] = assay: MTS cell viability assay; assay type: cell-based, mouse; settings: MTS
Experimental: (§1) Three human and eleven murine cancer cell lines were used. The human NSCLC cell line A549 (ACC 107) and the human colorectal carcinoma cell line CaCo2 (ACC 169) were obtained from Deutsche Sammlung von Mikroorganismen und Zellkulturen (DSMZ, Braunschweig, Germany). The human hepatocellular carcinoma cell line HepG2 (HB-8065) was obtained from American Type Culture Collection (Manassas, VA, USA). The 11 murine NSCLC cell lines were established as described recently. Cells were grown in monolayer cultures in DMEM containing 10% foetal calf serum, 4 mmol/l L-glutamine and 2% Penicillin/Streptomycin at 37°C in a humidified atmosphere of 95% air and 5% CO2.
(§2) Cell culture viability was monitored by CellTiter96® AQueous One Solution Cell Proliferation Assay (Promega GmbH, Mannheim, Germany). The cells were seeded in triplicates in 96-well microtitre plates and treated with the dual kinase inhibitors or vehicle (0.2% DMSO). After 24 h or 96 h of treatment the MTS tetrazolium reagent was added to the cells and incubated for 1 h. Absorbance at 490 nm was assayed with a Victor3 Wallac 1420 Multilabel counter (PerkinElmer, Waltham, MA, USA).

A2C12 [2] = assay: MTS cell viability assay; assay type: cell-based, mouse
Experimental: as §1, §2

GammaA3 [3] = assay: MTS cell viability assay; assay type: cell-based, mouse
Experimental: as §1, §2

BetaD5 [4] = assay: MTS cell viability assay; assay type: cell-based, mouse
Experimental: as §1, §2

CaCo2 [5] = assay: MTS cell viability assay; assay type: cell-based, human
Experimental: as §1, §2

HepG2 [6] = assay: MTS cell viability assay; assay type: cell-based, human
Experimental: as §1, §2

A549 [7] = assay: MTS cell viability assay; assay type: cell-based, human
Experimental: as §1, §2

GammaD12 [8] = assay: Cell cycle analysis by flow cytometry; assay type: cell-based, mouse; settings: IC50 concentration, 96 h
Experimental: (§3) CycleTEST™ PLUS DNA Reagent Kit (Becton Dickinson GmbH, Heidelberg, Germany) for cell cycle analysis was used, according to the instructions of the manufacturer. Briefly, the cells were harvested with trypsin, washed with PBS, and resuspended in CycleTEST Buffer. The cells were centrifuged and resuspended in solution A. After incubation for 10 min at room temperature, solution B was added and incubated. After adding solution C, the samples were incubated at 4°C protected from light. The samples were stored on ice and protected from light until analysis by FACScan flow cytometer (Becton Dickinson GmbH, Heidelberg, Germany).

A2C12 [9] = assay: Cell cycle analysis by flow cytometry; assay type: cell-based, mouse; settings: IC50 concentration, 96 h
Experimental: as §3

GammaA3 [10] = assay: Cell cycle analysis by flow cytometry; assay type: cell-based, mouse; settings: IC50 concentration, 96 h
Experimental: as §3

BetaD5 [11] = assay: Cell cycle analysis by flow cytometry; assay type: cell-based, mouse; settings: IC50 concentration, 96 h
Experimental: as §3

CaCo2 [12] = assay: Cell cycle analysis by flow cytometry; assay type: cell-based, human; settings: IC50 concentration, 96 h
Experimental: as §3

HepG2 [13] = assay: Cell cycle analysis by flow cytometry; assay type: cell-based, human; settings: IC50 concentration, 96 h
Experimental: as §3

A549 [14] = assay: Cell cycle analysis by flow cytometry; assay type: cell-based, human; settings: IC50 concentration, 96 h
Experimental: as §3

[15] = 24 h, read-out: Calculated IC50 after single treatment for 24 h
[16] = 96 h, read-out: Calculated IC50 after daily treatment for 96 h

Row | Compound | IC50 (GammaD12 [1]; [15]) | IC50 (GammaD12 [1]; [16]) | IC50 (A2C12 [2]; [15]) | IC50 (A2C12 [2]; [16]) | IC50 (GammaA3 [3]; [15]) | IC50 (GammaA3 [3]; [16]) | IC50 (BetaD5 [4]; [15]) | IC50 (BetaD5 [4]; [16]) | IC50 (CaCo2 [5]; [15]) | IC50 (CaCo2 [5]; [16]) | IC50 (HepG2 [6]; [15]) | IC50 (HepG2 [6]; [16]) | IC50 (A549 [7]; [15]) | IC50 (A549 [7]; [16]) | Cells in G1 phase (GammaD12 [8]) | Cells in G2 phase (GammaD12 [8]) | Cells in S phase (GammaD12 [8]) | Cells in G1 phase (A2C12 [9]) | Cells in G2 phase (A2C12 [9]) | Cells in S phase (A2C12 [9]) | other results
1 | CCCCNc1nc(SCC)nc2c1cnn2CC(Cl)c1ccccc1 (centres unmarked) [Si20] | 17.1 ± 1.5 µM | 11.3 ± 1.2 µM | 28.1 ± 4.6 µM | 11.3 ± 0.9 µM | 21.5 ± 2.3 µM | 15.5 ± 2.3 µM | 27 ± 7.9 µM | 10.4 µM | 56.2 ± 2 µM | 6.5 ± 0.1 µM | 56.2 ± 2.1 µM | 8.1 ± 2.8 µM | 25.1 ± 2.6 µM | 13.6 ± 1.5 µM | 31.4% | 9.7% | 58.9% | 55.6% | 11.3% | 33.1% | Cells in G1 phase (GammaA3 [10]): 51.9%; Cells in G2 phase (GammaA3 [10]): 17.5%; Cells in S phase (GammaA3 [10]): 30.8%; Cells in G1 phase (BetaD5 [11]): 63.2%; Cells in G2 phase (BetaD5 [11]): 24.2%; Cells in S phase (BetaD5 [11]): 12.6%; Cells in G1 phase (CaCo2 [12]): 61.9%; Cells in G2 phase (CaCo2 [12]): 5.2%; Cells in S phase (CaCo2 [12]): 32.9%; Cells in G1 phase (HepG2 [13]): 61.5%; Cells in G2 phase (HepG2 [13]): 7.3%; Cells in S phase (HepG2 [13]): 31.2%; Cells in G1 phase (A549 [14]): 78.9%; Cells in G2 phase (A549 [14]): 4.3%; Cells in S phase (A549 [14]): 16.7%
2 | CSc1nc(NCc2ccccc2)c2cnn(CC(Cl)c3ccccc3)c2n1 (centres unmarked) [Si34] | 23.2 ± 2.5 µM | 8.8 ± 1.4 µM | 32.8 ± 4.8 µM | 8.3 ± 0.3 µM | 25.2 ± 3.1 µM | 10.7 ± 0.6 µM | 37 ± 2.3 µM | 9.6 ± 0.2 µM | 58.2 ± 4.2 µM | 5.9 ± 0.1 µM | 58.5 ± 3 µM | 26.7 ± 4.8 µM | 69.5 ± 27.7 µM | 10.4 ± 0.4 µM | 36.2% | 7.9% | 55.9% | 74.5% | 9.7% | 15.7% | Cells in G1 phase (GammaA3 [10]): 68.6%; Cells in G2 phase (GammaA3 [10]): 16.8%; Cells in S phase (GammaA3 [10]): 14.6%; Cells in G1 phase (BetaD5 [11]): 65.8%; Cells in G2 phase (BetaD5 [11]): 23.1%; Cells in S phase (BetaD5 [11]): 11.1%; Cells in G1 phase (CaCo2 [12]): 52.9%; Cells in G2 phase (CaCo2 [12]): 10.5%; Cells in S phase (CaCo2 [12]): 36.7%; Cells in G1 phase (HepG2 [13]): 52%; Cells in G2 phase (HepG2 [13]): 13.2%; Cells in S phase (HepG2 [13]): 34.7%; Cells in G1 phase (A549 [14]): 67.3%; Cells in G2 phase (A549 [14]): 5.6%; Cells in S phase (A549 [14]): 27.1%
3 | CSc1nc(Nc2cccc(F)c2)c2cnn(CC(Cl)c3ccc(F)cc3)c2n1 (centres unmarked) [Si93] | 11.8 ± 0.4 µM | 8.8 ± 0.3 µM | 16.9 ± 0.9 µM | 6.5 ± 0.3 µM | 15.6 ± 0.6 µM | 7.7 ± 0.4 µM | 13.8 ± 2 µM | 10.4 ± 0.5 µM | 65.6 ± 2.7 µM | 6.4 ± 0.1 µM | 65.6 ± 2.7 µM | 19.1 ± 1.6 µM | 21.5 ± 4.2 µM | 6.5 ± 0.2 µM | 39.5% | 14.7% | 45.8% | 56.8% | 14.6% | 28.6% | Cells in G1 phase (GammaA3 [10]): 76.1%; Cells in G2 phase (GammaA3 [10]): 16.6%; Cells in S phase (GammaA3 [10]): 7.2%; Cells in G1 phase (BetaD5 [11]): 42.4%; Cells in G2 phase (BetaD5 [11]): 25.2%; Cells in S phase (BetaD5 [11]): 22.1%; Cells in G1 phase (CaCo2 [12]): 59.3%; Cells in G2 phase (CaCo2 [12]): 9.5%; Cells in S phase (CaCo2 [12]): 31.1%; Cells in G1 phase (HepG2 [13]): 55%; Cells in G2 phase (HepG2 [13]): 9.6%; Cells in S phase (HepG2 [13]): 35.4%; Cells in G1 phase (A549 [14]): 72.6%; Cells in G2 phase (A549 [14]): 5%; Cells in S phase (A549 [14]): 22.4%
4 | CSc1nc(NCc2ccccc2)c2cnn(CC(Cl)c3ccc(F)cc3)c2n1 (centres unmarked) [Si65] | 21 ± 1 µM | 7.1 ± 0.6 µM | 25.9 ± 4.3 µM | 8.6 ± 1.3 µM | 31.9 ± 1.6 µM | 9.9 ± 1.4 µM | 22.6 ± 1.9 µM | 10.6 ± 0.1 µM | 40.3 ± 0.9 µM | 5.7 ± 0.4 µM | 40.3 ± 0.9 µM | 9.1 ± 1.7 µM | 22.7 ± 0.6 µM | 8.2 ± 0.5 µM | 33% | 8.7% | 58.4% | 73.4% | 10.4% | 16.2% | Cells in G1 phase (GammaA3 [10]): 68%; Cells in G2 phase (GammaA3 [10]): 17.3%; Cells in S phase (GammaA3 [10]): 14.6%; Cells in G1 phase (BetaD5 [11]): 58.4%; Cells in G2 phase (BetaD5 [11]): 24.7%; Cells in S phase (BetaD5 [11]): 16.9%; Cells in G1 phase (HepG2 [13]): 62.7%; Cells in G2 phase (HepG2 [13]): 8.5%; Cells in S phase (HepG2 [13]): 28.1%; Cells in G1 phase (A549 [14]): 67.2%; Cells in G2 phase (A549 [14]): 6.3%; Cells in S phase (A549 [14]): 26.6%
